# From paper PMC6359284, “Identification, Characterization, and Optimization of Integrin αvβ6-Targeting Peptides from a One-Bead One-Compound (OBOC) Library: Towards the Development of Positron Emission Tomography (PET) Imaging Agents” (Molecules, 2019)
# Several values for one entry are separate records, joined by “and”; a condition that tells them apart may be missing. Equal entries are not always repeated. Where two headings read alike, the source gives them in different places. Square brackets hold non-standard residues; d marks the D form. Primed or numbered codes have the meaning given here. Ends that are not written are not given here. Peptide text beside a SMILES is read from it. * marks the point of attachment. (18F)FB = 4-[18F]fluorobenzoyl, radiolabelled form of FB, O=C(c1ccc([18F])cc1)*; PEG12 = NCCOCCOCCOCCOCCOCCOCCOCCOCCOCCOCCOCCOCCC(=O)O; Benzoyl(4-F) = O=C(c1ccc(F)cc1)*; PEG28′ = not defined here
# Experiments:
# [1] = target: T1, integrin αvβ6 (Homo sapiens, UniProt P06756+P18564); assay: Competitive binding ELISA, purified integrin αvβ6; conditions: for selectivity ratio for integrin αvβ6 compared to αvβ5: from ELISA IC50 values
# T1 construct: purchased R&D Systems
# Description: (§1) Competitive binding ELISAs were performed to evaluate the binding affinity of each peptide relative to each integrin’s biotinylated natural ligand (transforming growth factor beta 1 latency-associated peptide or TGFβ1-LAP (G&P Biosciences, Santa Clara, CA, USA) for integrins αvβ6 and αvβ8, fibronectin (Thermo Fisher, Waltham, MA, USA) for integrin αvβ1, and vitronectin (Thermo Fisher) for integrins αvβ3 and αvβ5), as previously described. In brief, anti-αv antibody (P2W7, 5 μg/mL, Abcam) was plated (50 μL/well) at 37 °C for 1 h, washed with PBS (3×), and blocked overnight with blocking buffer (300 μL/well, 5% bovine serum albumin (BSA), 1% Tween 20, in PBS), followed by washing with PBS (3×). […] The plate was incubated at 37 °C for 1 h, then washed with wash buffer (3×). A 1:1000 dilution of ExtrAvidin Horseradish Peroxidase (HRP) was added to each well (50 μL/well), incubated at 37 °C for 1 h, and then washed with wash buffer (3×). The ExtrAvidin HRP was detected with 3,3′,5,5′-tetramethylbenzidine (50 μL/well, Promega, Madison, WI, USA) for 10–15 min at room temperature. The reaction was stopped by adding 1N H2SO4 (50 μL/well) and the absorbance was measured in a Multiscan Ascent plate reader (Thermo Fisher) at 450 nm. Half-maximal inhibitory concentration (IC50) of peptides was determined fitting to sigmoidal dose-response model in GraphPad Prism 5.0 (San Diego, CA, USA).
# [2] = Serum stability assay in mouse serum; assay type: in vitro ADME; conditions: 37 °C, radio-RP-HPLC
# Description: Peptide stability was evaluated in mouse serum as previously described. In brief, formulated ^18F-radiolabeled peptide (~3.7 MBq in PBS) was incubated with mouse serum (500 μL, Sigma Aldrich, St. Louis, MO) at 37 °C for 1 h.
# [3] = tested on: DX3puroβ6 (αvβ6+) cells; assay: 18F-radiolabeled peptide cell binding assay, αvβ6+ cells; assay type: cell-based; conditions: 60 min incubation at 37 °C, n = 3
# Description: (§2) Cell binding assay was performed as previously described. […] The ^18F-radiolabeled peptide was prepared in a stock solution of 148 kBq in 1 mL PBS (pH 7.2). Aliquots of each ^18F-radiolabeled peptide (50 μL, 7.4 kBq per sample) were added to each cell sample and incubated at 37 °C for 1 h with frequent suspension. After incubation, each sample was centrifuged and the supernatant was collected. The cell pellet was washed with 500 μL PBS, centrifuged, and the supernatant was combined with the previously collected supernatant samples. The cell pellet was resuspended in 600 μL PBS and transferred to gamma counter tubes. All pellet and supernatant samples were measured in a Wizard 1470 gamma counter (Perkin Elmer, Waltham, MA, USA). Cell binding percentage for each cell line was calculated as the radioactivity associated, with pellet divided by the total radioactivity associated with both the pellet and supernatant.
# [4] = target: T2, integrin αvβ8 (Homo sapiens, UniProt P06756+P26012); assay: Competitive binding ELISA, purified integrin αvβ8; conditions: competitive ELISA vs biotinylated TGFβ1-LAP, n = 3
# T2 construct: purchased R&D Systems
# Description: as §1
# [5] = target: T3, integrin αvβ3 (Homo sapiens, UniProt P05106+P06756); assay: Competitive binding ELISA, purified integrin αvβ3; conditions: competitive ELISA vs biotinylated vitronectin, n = 3
# T3 construct: purchased R&D Systems
# Description: as §1
# [6] = target: T4, integrin αvβ1 (Homo sapiens, UniProt P05556+P06756); assay: Competitive binding ELISA, purified integrin αvβ1; conditions: competitive ELISA vs biotinylated fibronectin, n = 3
# T4 construct: purchased R&D Systems
# Description: as §1
# [7] = tested on: DX3puro (αvβ6−) cells; assay: 18F-radiolabeled peptide cell binding assay, αvβ6− cells; assay type: cell-based; conditions: 60 min incubation at 37 °C, n = 3
# Description: as §2
# [8] = competitive ELISA vs biotinylated TGFβ1-LAP, n = 3, read-out: IC50 (μM) αvβ6
Compound,"IC50 [1, 8]",% Intact (1 h) [2],% binding to DX3puroβ6 (αvβ6+) cells [3],% binding to DX3puro (αvβ6−) cells [7],further results
CC(C)C[C@H](NC(=O)[C@H](Cc1ccc(O)cc1)NC(=O)[C@@H](NC(=O)[C@H](CC(C)C)NC(=O)[C@H](CC(=O)O)NC(=O)CNC(=O)[C@@H](NC(=O)c1ccc(F)cc1)C(C)C)[C@@H](C)O)C(=O)N[C@@H](CCCCN)C(=O)N[C@@H](CCCCN)C(N)=O [1a] ({Benzoyl(4-F)}-VGDLTYLKK-NH2),0.81 ± 0.09 µM,–,–,–,–
CC(=O)N[C@H](C(=O)NCC(=O)N[C@@H](CC(=O)O)C(=O)N[C@@H](CC(C)C)C(=O)N[C@H](C(=O)N[C@@H](Cc1ccc(O)cc1)C(=O)N[C@@H](CC(C)C)C(=O)N[C@@H](CCCCN)C(=O)N[C@@H](CCCCNC(=O)c1ccc(F)cc1)C(N)=O)[C@@H](C)O)C(C)C [1b],> 100 µM,–,–,–,–
CN[C@H](C(=O)NCC(=O)N[C@@H](CC(=O)O)C(=O)N[C@@H](CC(C)C)C(=O)N[C@H](C(=O)N[C@@H](Cc1ccc(O)cc1)C(=O)N[C@@H](CC(C)C)C(=O)N[C@@H](CCCCN)C(=O)N[C@@H](CCCCNC(=O)c1ccc(F)cc1)C(N)=O)[C@@H](C)O)C(C)C [1c],> 5 µM,–,–,–,–
CC(C)C[C@H](NC(=O)[C@H](Cc1ccc(O)cc1)NC(=O)[C@@H](NC(=O)[C@H](CC(C)C)NC(=O)[C@H](CC(=O)O)NC(=O)CNC(=O)[C@@H](NC(=O)CCOCCOCCOCCOCCOCCOCCOCCOCCOCCOCCOCCOCCN)C(C)C)[C@@H](C)O)C(=O)N[C@@H](CCCCN)C(=O)N[C@@H](CCCCNC(=O)c1ccc(F)cc1)C(N)=O [1d] (H-[PEG12]VGDLTYLKK(Benzoyl(4-F))-NH2; N-terminus assumed),> 100 µM,–,–,–,–
CC(C)C[C@H](NC(=O)[C@H](Cc1ccc(O)cc1)NC(=O)[C@@H](NC(=O)[C@H](CC(C)C)NC(=O)[C@H](CC(=O)O)NC(=O)CNC(=O)[C@@H](NC(=O)c1ccc(F)cc1)C(C)C)[C@@H](C)O)C(=O)N[C@@H](CCCCN)C(=O)N[C@@H](CCCCNC(=O)c1ccc(F)cc1)C(N)=O [1e],0.84 ± 0.36 µM,–,–,–,–
CC(C)C[C@H](NC(=O)[C@H](Cc1ccc(O)cc1)NC(=O)[C@@H](NC(=O)[C@H](CC(C)C)NC(=O)[C@H](CC(=O)O)NC(=O)CNC(=O)[C@@H](N)C(C)C)[C@@H](C)O)C(=O)N[C@@H](CCCCN)C(=O)N[C@@H](CCCCNC(=O)c1ccc(F)cc1)C(=O)NCCOCCOCCOCCOCCOCCOCCOCCOCCOCCOCCOCCOCCOCCOCCOCCOCCOCCOCCOCCOCCOCCOCCOCCOCCOCCOCCOCCOCCC(N)=O [1f],3.7 ± 1 µM,> 95%,< 2%,–,–
CC(=O)N[C@H](C(=O)NCC(=O)N[C@@H](CC(=O)O)C(=O)N[C@@H](CC(C)C)C(=O)N[C@H](C(=O)N[C@@H](Cc1ccc(O)cc1)C(=O)N[C@@H](CC(C)C)C(=O)N[C@@H](CCCCN)C(=O)N[C@@H](CCCCNC(=O)c1ccc(F)cc1)C(=O)NCCOCCOCCOCCOCCOCCOCCOCCOCCOCCOCCOCCOCCOCCOCCOCCOCCOCCOCCOCCOCCOCCOCCOCCOCCOCCOCCOCCOCCC(N)=O)[C@@H](C)O)C(C)C [1g],> 100 µM,–,–,–,–
CC(C)C[C@H](NC(=O)[C@H](Cc1ccc(O)cc1)NC(=O)[C@@H](NC(=O)[C@H](CC(C)C)NC(=O)[C@H](CC(=O)O)NC(=O)CNC(=O)[C@@H](NC(=O)c1ccc(F)cc1)C(C)C)[C@@H](C)O)C(=O)N[C@@H](CCCCN)C(=O)N[C@@H](CCCCNC(=O)c1ccc(F)cc1)C(=O)NCCOCCOCCOCCOCCOCCOCCOCCOCCOCCOCCOCCOCCOCCOCCOCCOCCOCCOCCOCCOCCOCCOCCOCCOCCOCCOCCOCCOCCC(N)=O [1h],1.47 ± 0.23 µM,> 95%,< 2%,–,–
CC(C)C[C@H](NC(=O)[C@H](Cc1ccc(O)cc1)NC(=O)[C@@H](NC(=O)[C@H](CC(C)C)NC(=O)[C@H](CC(=O)O)NC(=O)CNC(=O)[C@@H](N)C(C)C)[C@@H](C)O)C(=O)N[C@@H](CCCCN)C(=O)N[C@@H](CCCCNC(=O)c1ccc(F)cc1)C(N)=O [compound 1] (H-VGDLTYLKK(Benzoyl(4-F))-NH2; N-terminus assumed),–,–,–,–,"IC50 [4]: 5.3 ± 0.14 µM; selectivity ratio for integrin αvβ6 compared to the other integrins (αvβ1, αvβ3, and αvβ5) [1]: > 200 :1; IC50 ([1]; read-out: IC50 (μM) αvβ6): 0.45 ± 0.06 µM"
CSCC[C@H](NC(=O)[C@H](CC(C)C)NC(=O)[C@H](CC(=O)O)NC(=O)CNC(=O)[C@@H](N)CCCNC(=N)N)C(=O)N[C@@H](CCCCN)C(=O)N[C@@H](CC(C)C)C(=O)N[C@@H](C)C(=O)N[C@@H](CCCCNC(=O)c1ccc(F)cc1)C(N)=O [compound 2] (H-RGDLMKLAK(Benzoyl(4-F))-NH2; N-terminus assumed),–,–,–,–,IC50 [4]: 2.6 ± 0.35 µM; IC50 [1]: 0.95 ± 0.17 µM; selectivity ratio for integrin αvβ6 compared to αvβ5 [1]: > 100 :1
CC(C)C[C@H](NC(=O)[C@H](CC(=O)O)NC(=O)CNC(=O)[C@@H](N)CCCNC(=N)N)C(=O)N[C@@H](C)C(=O)N[C@@H](CC(=O)O)C(=O)N[C@@H](CC(C)C)C(=O)N[C@@H](CCCNC(=N)N)C(=O)N[C@@H](CCCCNC(=O)c1ccc(F)cc1)C(N)=O [compound 3] (H-RGDLADLRK(Benzoyl(4-F))-NH2; N-terminus assumed),–,–,–,–,selectivity ratio for integrin αvβ6 compared to αvβ5 [1]: > 100 :1
CC[C@H](C)[C@H](NC(=O)CN)C(=O)N[C@@H](CC(=O)O)C(=O)N[C@@H](CC(C)C)C(=O)N[C@H](C(=O)N[C@@H](CO)C(=O)N[C@@H](CC(C)C)C(=O)N[C@H](C(=O)N[C@@H](CCCCNC(=O)c1ccc(F)cc1)C(N)=O)[C@@H](C)O)[C@@H](C)O [compound 4] (H-GIDLTSLTK(Benzoyl(4-F))-NH2; N-terminus assumed),> 100 µM,–,–,–,IC50 [5]: > 100 µM
CC(C)C[C@H](NC(=O)[C@H](CCC(=O)O)NC(=O)[C@H](CCCNC(=N)N)NC(=O)[C@H](CC(C)C)NC(=O)[C@H](CC(=O)O)NC(=O)CNC(=O)[C@@H](N)CCCNC(=N)N)C(=O)N[C@@H](C)C(=O)N[C@@H](CCCCNC(=O)c1ccc(F)cc1)C(N)=O [compound 5] (H-RGDLRELAK(Benzoyl(4-F))-NH2; N-terminus assumed),–,–,–,–,"selectivity ratio for integrin αvβ6 compared to αvβ5 [1]: > 100 :1; IC50 ([1]; read-out: IC50 (μM) αvβ6, competitive ELISA vs biotinylated TGFβ1-LAP, n = 3): 0.89 ± 0.14 µM; IC50 [6]: 1.9 ± 0.3 µM"
FB-VGDLTYLKK([^18F]FB)-PEG28 ({Benzoyl(4-F)}-VGDLTYLKK((18F)FB)[PEG28′]) [[^18F]1h],–,> 95% and 95%,less than 2%,less than 2%,–
RGDLADLRK([^18F]FB) (RGDLADLRK((18F)FB)) [[^18F]3],–,0%,7.7 ± 3.8%,5.3 ± 2.8%,–
RGDLRELAK([^18F]FB) (RGDLRELAK((18F)FB)) [[^18F]5],–,0%,6.4 ± 0.1%,5.9 ± 0.8%,–
VGDLTYLKK([^18F]FB) (VGDLTYLKK((18F)FB)-NH2) [[^18F]1],–,25%,12.8 ± 1.9%,11.7 ± 2.2%,–
VGDLTYLKK([^18F]FB)-PEG28 (VGDLTYLKK((18F)FB)[PEG28′]) [[^18F]1f],–,> 95% and 95%,less than 2%,less than 2%,–
VGDLTYLKK([^18F]FB)KVART [[^18F]1i],–,> 99% and 99%,5.0 ± 0.5%,–,–
[^18F]FB-PEG28-A20FMDV2-K16R-PEG28 [reference compound],–,–,77.1 ± 0.1%,1.5 ± 0.1%,–
[^18F]FB-VGDLTYLKK ({(18F)FB}-VGDLTYLKK-NH2) [[^18F]1a],–,–,less than 2%,less than 2%,–
